Ki data for three molecules are collected here from paper PMC7597377 (Science signaling, 2020).

The term Ki denotes a dissociation constant, usually derived from enzyme kinetics or from competition with a known ligand. Read a low Ki as a stronger hold on the target.

Where a chain is given by its changes, count along the chain named.

Common to all, as to assay: competitive radiometric binding vs [3H]E2
Experiment [1] deals with T1, ERα LBD (WT-Q, his-tagged) (Homo sapiens, UniProt P03372).
T1 sequence (P03372 302-552 limits assumed): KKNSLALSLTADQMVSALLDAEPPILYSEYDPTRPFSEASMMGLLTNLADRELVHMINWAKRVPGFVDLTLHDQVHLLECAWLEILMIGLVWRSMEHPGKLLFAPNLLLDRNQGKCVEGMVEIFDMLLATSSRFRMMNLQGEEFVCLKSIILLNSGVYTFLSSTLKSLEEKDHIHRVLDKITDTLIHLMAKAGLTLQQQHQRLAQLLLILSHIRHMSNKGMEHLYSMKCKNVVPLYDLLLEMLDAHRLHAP

The target in experiment [2] is T2, ERα LBD (WT-Q, his-tagged) (Homo sapiens, UniProt P03372, Q375H).
T2 sequence (P03372 302-552 Q375H limits assumed): T1 sequence (P03372 302-552 limits assumed) with Q74H

Experiment [3] concerns the target T3, ERα LBD (WT-Q, his-tagged) (Homo sapiens, UniProt P03372, Q375K).
T3 sequence (P03372 302-552 Q375K limits assumed): T1 sequence (P03372 302-552 limits assumed) with Q74K

In experiment [4] the target is T4, ERα LBD (WT-Q, his-tagged) (Homo sapiens, UniProt P03372, Q375L).
T4 sequence (P03372 302-552 Q375L limits assumed): T1 sequence (P03372 302-552 limits assumed) with Q74L

In experiment [5] the target is T5, ERα LBD (WT-Q, his-tagged) (Homo sapiens, UniProt P03372, Q375E).
T5 sequence (P03372 302-552 Q375E limits assumed): T1 sequence (P03372 302-552 limits assumed) with Q74E

`CC[C@H](c1ccc(O)cc1)[C@@H](CC)c1ccc(O)cc1` [Hex]: the Ki in experiment [1] stood at 0.06 ± 0.02 nM; in experiment [2], 0.29 ± 0.07 nM; in experiment [3] it was 0.29 ± 0.05 nM; in experiment [4], 0.07 ± 0.01 nM.

As for `C[C@]12C[C@H](CCl)[C@@H]3c4ccc(O)cc4CC[C@H]3[C@@H]1CC[C@@H]2O` [CME], the Ki in experiment [1] stood at 0.11 ± 0.04 nM; in experiment [2] it was 0.58 ± 0.14 nM; in experiment [3], 0.41 ± 0.1 nM; in experiment [5], 0.35 ± 0.08 nM; in experiment [4] it was 0.22 ± 0.05 nM.

With `CC[C@H]1C[C@]2(C)[C@@H](O)CC[C@H]2[C@@H]2CCc3cc(O)ccc3[C@@H]12` [Et-E2], the Ki in experiment [1] worked out at 0.13 ± 0.04 nM; in experiment [2], 0.74 ± 0.04 nM; in experiment [3] it was 0.29 ± 0.02 nM; in experiment [4], 0.16 ± 0.04 nM.
